Columns and labels:
[1] = target: T1, human adenosine A2A receptor (Homo sapiens, UniProt P29274); assay: Human adenosine A2A receptor [3H]-SCH-58261 binding assay; conditions: for Ki: affinity to human adenosine A2A receptor, read-out: Ki HA2A; for selectivity (A1/A2a): calculated ratio of the affinity to the HA1 receptor to the HA2a receptor
T1 construct: expressed in transfected cells; host or cells: CHO cells, Semliki Forest virus expression system; membrane preparation

HA1 adenosine receptor = target: T2, HA1 adenosine receptor (Homo sapiens, UniProt P30542); assay: Human adenosine A1 receptor affinity (Ki hA1); format: binding; conditions: affinity to human adenosine A1 receptor
T2 sequence (P30542 1-326): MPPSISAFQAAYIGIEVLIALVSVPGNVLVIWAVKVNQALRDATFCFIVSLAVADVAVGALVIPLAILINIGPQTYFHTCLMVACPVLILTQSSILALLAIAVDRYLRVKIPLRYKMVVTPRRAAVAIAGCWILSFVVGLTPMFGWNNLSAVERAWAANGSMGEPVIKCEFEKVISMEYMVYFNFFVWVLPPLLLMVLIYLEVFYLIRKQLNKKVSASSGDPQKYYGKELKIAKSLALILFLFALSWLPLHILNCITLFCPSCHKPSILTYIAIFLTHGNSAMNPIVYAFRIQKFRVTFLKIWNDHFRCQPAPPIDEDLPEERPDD

T1 sequence (P29274 whole entry): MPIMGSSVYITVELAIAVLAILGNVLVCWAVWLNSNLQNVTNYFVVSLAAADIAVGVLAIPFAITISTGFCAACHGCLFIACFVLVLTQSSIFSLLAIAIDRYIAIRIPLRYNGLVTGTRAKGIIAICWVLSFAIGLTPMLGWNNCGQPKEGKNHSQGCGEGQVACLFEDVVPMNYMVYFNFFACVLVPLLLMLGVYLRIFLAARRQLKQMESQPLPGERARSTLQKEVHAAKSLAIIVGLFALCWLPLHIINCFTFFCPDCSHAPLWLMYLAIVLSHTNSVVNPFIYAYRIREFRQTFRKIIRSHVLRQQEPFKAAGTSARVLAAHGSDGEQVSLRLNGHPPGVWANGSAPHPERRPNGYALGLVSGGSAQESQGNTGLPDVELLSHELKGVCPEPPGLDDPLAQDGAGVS

| Ki [1] | selectivity (A1/A2a) [1] | Ki (HA1 adenosine receptor) | Structure (SMILES) |
| --- | --- | --- | --- |
| 11.1 nM | 1.6 | 17.5 nM | Nc1cc(C(=O)NCc2ccccc2Cl)cc2nc(-c3cc(Br)co3)nn12 [Example 174, 5-Amino-2-(4-bromo-furan-2-yl)-[1,2,4]triazolo[1,5-a]pyridine-7-carboxylic acid 2-chloro-benzylamide] |
| 14.6 nM | 1.5 | 22.6 nM | Nc1cc(C(=O)NCc2ccccc2Br)cc2nc(-c3cc(Br)co3)nn12 [Example 175, 5-Amino-2-(4-bromo-furan-2-yl)-[1,2,4]triazolo[1,5-a]pyridine-7-carboxylic acid 2-bromo-benzylamide] |
| 329 nM | 0.5 | 151 nM | COc1ccc(CNC(=O)c2cc(N)n3nc(-c4cc(Br)co4)nc3c2)cc1 [Example 176, 5-Amino-2-(4-bromo-furan-2-yl)-[1,2,4]triazolo[1,5-a]pyridine-7-carboxylic acid 4-methoxy-benzylamide] |
| 197 nM | 1.3 | 266 nM | COc1cc(CNC(=O)c2cc(N)n3nc(-c4cc(Br)co4)nc3c2)cc(OC)c1OC [Example 177, 5-Amino-2-(4-bromo-furan-2-yl)-[1,2,4]triazolo[1,5-a]pyridine-7-carboxylic acid 3,4,5-trimethoxy-benzylamide] |
| 65.2 nM | 6.9 | 450 nM | CCCCNC(=O)c1cc(N)n2nc(-c3cccn3C)nc2c1 [Example 178, 5-Amino-2-(1-methyl-1H-pyrrol-2-yl)-[1,2,4]triazolo[1,5-a]pyridine-7-carboxylic acid butylamide] |
| 144 nM | 5.4 | 779 nM | Cn1cccc1-c1nc2cc(C(=O)NC3CCCCC3)cc(N)n2n1 [Example 179, 5-Amino-2-(1-methyl-1H-pyrrol-2-yl)-[1,2,4]triazolo[1,5-a]pyridine-7-carboxylic acid cyclohexylamide] |
| 112 nM | 2.7 | 307 nM | Cn1cccc1-c1nc2cc(C(=O)NCc3ccccc3)cc(N)n2n1 [Example 180, 5-Amino-2-(1-methyl-1H-pyrrol-2-yl)-[1,2,4]triazolo[1,5-a]pyridine-7-carboxylic acid benzylamide] |
| 54.3 nM | 4.7 | 256 nM | Cn1cccc1-c1nc2cc(C(=O)NCc3ccccc3Cl)cc(N)n2n1 [Example 181, 5-Amino-2-(1-methyl-1H-pyrrol-2-yl)-[1,2,4]triazolo[1,5-a]pyridine-7-carboxylic acid 2-chloro-benzylamide] |
| 54.6 nM | 4.9 | 270 nM | Cn1cccc1-c1nc2cc(C(=O)NCc3ccccc3Br)cc(N)n2n1 [Example 182, 5-Amino-2-(1-methyl-1H-pyrrol-2-yl)-[1,2,4]triazolo[1,5-a]pyridine-7-carboxylic acid 2-bromo-benzylamide] |
| 33.7 nM | 9.0 | 302 nM | COc1ccc(CNC(=O)c2cc(N)n3nc(-c4ccco4)nc3c2)cc1 [Example 183, 5-Amino-2-furan-2-yl-[1,2,4]triazolo[1,5-a]pyridine-7-carboxylic acid 4-methoxy-benzylamide] |
| 69.5 nM | 1.9 | 133 nM | CCCCNC(=O)c1cc(N)n2nc(-c3sccc3C)nc2c1 [Example 184, 5-Amino-2-(3-methyl-thiophen-2-yl)-[1,2,4]triazolo[1,5-a]pyridine-7-carboxylic acid butylamide] |
| 238 nM | 6.0 | 1420 nM | CCN(CC)C(=O)c1cc(N)n2nc(-c3sccc3C)nc2c1 [Example 185, 5-Amino-2-(3-methyl-thiophen-2-yl)-[1,2,4]triazolo[1,5-a]pyridine-7-carboxylic acid diethylamide] |
| 210 nM | 1.2 | 249 nM | Cc1ccsc1-c1nc2cc(C(=O)N(C(C)C)C(C)C)cc(N)n2n1 [Example 186, 5-Amino-2-(3-methyl-thiophen-2-yl)-[1,2,4]triazolo[1,5-a]pyridine-7-carboxylic acid diisopropylamide] |
| 224 nM | 1.0 | 228 nM | Cc1ccsc1-c1nc2cc(C(=O)NC3CCc4ccccc43)cc(N)n2n1 (stereo not drawn) [Example 187, 5-Amino-2-(3-methyl-thiophen-2-yl)-[1,2,4]triazolo[1,5-a]pyridine-7-carboxylic acid indan-1-ylamide] |
| 226 nM | 3.1 | 711 nM | Cc1ccsc1-c1nc2cc(C(=O)N3CCCC3)cc(N)n2n1 [Example 188, [5-Amino-2-(3-methyl-thiophen-2-yl)-[1,2,4]triazolo[1,5-a]pyridin-7-yl]-pyrrolidin-1-yl-methanone] |
| 268 nM | 2.9 | 763 nM | Cc1ccsc1-c1nc2cc(C(=O)N3CCCCC3)cc(N)n2n1 [Example 189, [5-Amino-2-(3-methyl-thiophen-2-yl)-[1,2,4]triazolo[1,5-a]pyridin-7-yl]-piperidin-1-yl-methanone] |
| 365 nM | 0.1 | 47.3 nM | Cc1ccsc1-c1nc2cc(C(=O)NC(C)c3ccccc3)cc(N)n2n1 (stereo not drawn) [Example 190, 5-Amino-2-(3-methyl-thiophen-2-yl)-[1,2,4]triazolo[1,5-a]pyridine-7-carboxylic acid (1-phenyl-ethyl)-amide] |
| 108 nM | 1.2 | 131 nM | Cc1ccsc1-c1nc2cc(C(=O)NCc3ccccc3Cl)cc(N)n2n1 [Example 191, 5-Amino-2-(3-methyl-thiophen-2-yl)-[1,2,4]triazolo[1,5-a]pyridine-7-carboxylic acid 2-chloro-benzylamide] |
| 129 nM | 0.9 | 112 nM | COc1ccccc1CNC(=O)c1cc(N)n2nc(-c3sccc3C)nc2c1 [Example 192, 5-Amino-2-(3-methyl-thiophen-2-yl)-[1,2,4]triazolo[1,5-a]pyridine-7-carboxylic acid 2-methoxy-benzylamide] |
| 41.7 nM | 1.8 | 74.8 nM | CCCCNC(=O)c1cc(N)n2nc(-c3ccc(C)s3)nc2c1 [Example 193, 5-Amino-2-(5-methyl-thiophen-2-yl)-[1,2,4]triazolo[1,5-a]pyridine-7-carboxylic acid butylamide] |
| 56.3 nM | 4.4 | 246 nM | CCN(C(=O)c1cc(N)n2nc(-c3ccc(C)s3)nc2c1)C(C)C [Example 194, 5-Amino-2-(5-methyl-thiophen-2-yl)-[1,2,4]triazolo[1,5-a]pyridine-7-carboxylic acid ethyl-isopropyl-amide] |
| 109 nM | 1.3 | 145 nM | Cc1ccc(-c2nc3cc(C(=O)NC4CCCCC4)cc(N)n3n2)s1 [Example 195, 5-Amino-2-(5-methyl-thiophen-2-yl)-[1,2,4]triazolo[1,5-a]pyridine-7-carboxylic acid cyclohexylamide] |
| 52.2 nM | 8.3 | 432 nM | Cc1ccc(-c2nc3cc(C(=O)N4CCCC4)cc(N)n3n2)s1 [Example 196, [5-Amino-2-(5-methyl-thiophen-2-yl)-[1,2,4]triazolo[1,5-a]pyridin-7-yl]-pyrrolidin-1-yl-methanone] |
| 178 nM | 0.5 | 90.3 nM | Cc1ccc(-c2nc3cc(C(=O)NCc4ccccc4)cc(N)n3n2)s1 [Example 197, 5-Amino-2-(5-methyl-thiophen-2-yl)-[1,2,4]triazolo[1,5-a]pyridine-7-carboxylic acid benzylamide] |
| 174 nM | 0.6 | 112 nM | Cc1ccc(-c2nc3cc(C(=O)NC(C)c4ccccc4)cc(N)n3n2)s1 (stereo not drawn) [Example 198, 5-Amino-2-(5-methyl-thiophen-2-yl)-[1,2,4]triazolo[1,5-a]pyridine-7-carboxylic acid (1-phenyl-ethyl)-amide] |
| 30.2 nM | 1.2 | 36.9 nM | Cc1ccc(-c2nc3cc(C(=O)NCc4ccccc4Cl)cc(N)n3n2)s1 [Example 199, 5-Amino-2-(5-methyl-thiophen-2-yl)-[1,2,4]triazolo[1,5-a]pyridine-7-carboxylic acid 2-chloro-benzylamide] |
| 22 nM | 1.7 | 37.9 nM | Cc1ccc(-c2nc3cc(C(=O)NCc4ccccc4Br)cc(N)n3n2)s1 [Example 200, 5-Amino-2-(5-methyl-thiophen-2-yl)-[1,2,4]triazolo[1,5-a]pyridine-7-carboxylic acid 2-bromo-benzylamide] |
| 31.3 nM | 1.1 | 33 nM | COc1ccccc1CNC(=O)c1cc(N)n2nc(-c3ccc(C)s3)nc2c1 [Example 201, 5-Amino-2-(5-methyl-thiophen-2-yl)-[1,2,4]triazolo[1,5-a]pyridine-7-carboxylic acid 2-methoxy-benzylamide] |
| 310 nM | 2.2 | 678 nM | COc1cc(CNC(=O)c2cc(N)n3nc(-c4ccc(C)s4)nc3c2)cc(OC)c1OC [Example 202, 5-Amino-2-(5-methyl-thiophen-2-yl)-[1,2,4]triazolo[1,5-a]pyridine-7-carboxylic acid 3,4,5-trimethoxy-benzylamide] |
